Values of other authors, collected in patent US7482336B2, “Aminocyclohexanes as dipeptidyl peptidase-IV inhibitors for the treatment or prevention of diabetes” (Merck & Co., Inc., priority 2004, dated 2009).
One block for each compound: values may come before it.

Columns and labels:
[1] = rats; Transplantation 63: 1495-1500 (1997)
[2] = mouse, cyclophosphamide-induced neutropenia; WO 99/56753
DPP-IV = molecular target: T1, DPP-IV (Homo sapiens, UniProt P27487)
T1 construct: GRF is rapidly degraded in plasma to GRF[3-44]
T1 sequence (P27487 whole entry, species assumed): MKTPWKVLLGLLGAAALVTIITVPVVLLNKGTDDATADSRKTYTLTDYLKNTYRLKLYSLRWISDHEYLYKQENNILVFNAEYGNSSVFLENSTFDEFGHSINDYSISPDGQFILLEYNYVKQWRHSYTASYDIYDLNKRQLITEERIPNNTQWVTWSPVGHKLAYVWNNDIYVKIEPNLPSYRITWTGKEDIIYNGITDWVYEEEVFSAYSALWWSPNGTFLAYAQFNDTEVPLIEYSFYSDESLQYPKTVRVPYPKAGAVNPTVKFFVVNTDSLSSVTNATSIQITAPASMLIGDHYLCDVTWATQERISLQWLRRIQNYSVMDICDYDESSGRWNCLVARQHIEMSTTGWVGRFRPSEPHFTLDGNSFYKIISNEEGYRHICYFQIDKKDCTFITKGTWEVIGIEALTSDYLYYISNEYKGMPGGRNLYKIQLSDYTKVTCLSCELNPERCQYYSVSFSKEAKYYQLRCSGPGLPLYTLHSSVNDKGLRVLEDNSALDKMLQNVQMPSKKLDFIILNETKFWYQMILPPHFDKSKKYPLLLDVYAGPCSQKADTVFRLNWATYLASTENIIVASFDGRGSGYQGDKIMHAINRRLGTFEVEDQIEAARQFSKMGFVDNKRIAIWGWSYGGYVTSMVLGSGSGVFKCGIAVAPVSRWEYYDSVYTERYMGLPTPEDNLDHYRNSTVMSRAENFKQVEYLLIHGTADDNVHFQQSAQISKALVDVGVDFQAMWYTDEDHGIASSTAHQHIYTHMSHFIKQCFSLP

Compound: CC(C)N1CCC(c2ccccc2)(c2ccccc2)CC1 [Prodipine, Pro-Pro-diphenyl-phosphonate]
cardiac allograft survival [1]: double cardiac allograft survival in rats from day 7 to day 14

Compound: CC(C)[C@H](N)C(=O)N1CCC[C@H]1B(O)O [Val-Boro-Pro]
hematopoiesis [2]: stimulated hematopoiesis

degradation of GRF in plasma to GRF[3-44] (DPP-IV): prevented
Compound: diprotin A
